Results: US12077503B2, “Substituted cyclic amides and their use as herbicides” (FMC CORPORATION, priority 2015, dated 2024)

Assays:
Type in all cases: in vivo
[1] = test system: Kochia (Kochia scoparia); test: Test A preemergence; conditions: Bassia scoparia, pre-emergence, 240 h, 0 to 100 scale (0 no effect, 100 complete control), read-out: Plant response rating, Kochia
Summary of the method: (§1)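 Preemergence soil spray on seeded pots or post-emergence spray on 1–2 leaf plants, in loam–sand blend. Greenhouse ~10 d. Visual rating 0–100 against untreated plants.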

[2] = test system: barnyardgrass (Echinochloa crus-galli); test: Test A preemergence; conditions: Echinochloa crus-galli, pre-emergence, 240 h, 0 to 100 scale (0 no effect, 100 complete control), read-out: Plant response rating, Barnyardgrass
Summary of the method: as §1

[3] = test system: ragweed (common ragweed, Ambrosia elatior); test: Test A preemergence; conditions: Ambrosia artemisiifolia, pre-emergence, 240 h, 0 to 100 scale (0 no effect, 100 complete control), read-out: Plant response rating, Ragweed
Summary of the method: as §1

[4] = test system: ryegrass, Italian (Italian ryegrass, Lolium multiflorum); test: Test A preemergence; conditions: Lolium multiflorum, pre-emergence, 240 h, 0 to 100 scale (0 no effect, 100 complete control), read-out: Plant response rating, Ryegrass, Italian
Summary of the method: as §1

[5] = test system: giant foxtail (Setaria faberii); test: Test A preemergence; conditions: Setaria faberi, pre-emergence, 240 h, 0 to 100 scale (0 no effect, 100 complete control), read-out: Plant response rating, Foxtail, Giant
Summary of the method: as §1

[6] = test system: pigweed (Amaranthus retroflexus); test: Test A preemergence; conditions: Amaranthus retroflexus, pre-emergence, 240 h, 0 to 100 scale (0 no effect, 100 complete control), read-out: Plant response rating, Pigweed
[7] = test system: Galium (catchweed bedstraw, Galium aparine); test: Test A postemergence; conditions: Galium, post-emergence, 240 h, Postemergence, read-out: Plant response rating, Galium
Summary of the method: as §1

[8] = test system: Kochia (Kochia scoparia); test: Test A postemergence; conditions: Bassia scoparia, post-emergence, 240 h, Postemergence, read-out: Plant response rating, Kochia
Summary of the method: as §1

[9] = test system: barnyardgrass (Echinochloa crus-galli); test: Test A postemergence; conditions: Echinochloa crus-galli, post-emergence, 240 h, Postemergence, read-out: Plant response rating, Barnyardgrass
Summary of the method: as §1

[10] = test system: ragweed (common ragweed, Ambrosia elatior); test: Test A postemergence; conditions: Ambrosia artemisiifolia, post-emergence, 240 h, Postemergence, read-out: Plant response rating, Ragweed
Summary of the method: as §1

[11] = test system: ryegrass, Italian (Italian ryegrass, Lolium multiflorum); test: Test A postemergence; conditions: Lolium multiflorum, post-emergence, 240 h, Postemergence, read-out: Plant response rating, Ryegrass, Italian
Summary of the method: as §1

[12] = test system: blackgrass (Alopecurus myosuroides); test: Test A postemergence; conditions: Alopecurus myosuroides, post-emergence, 240 h, Postemergence, read-out: Plant response rating, Blackgrass
Summary of the method: as §1

[13] = test system: giant foxtail (Setaria faberii); test: Test A postemergence; conditions: Setaria faberi, post-emergence, 240 h, Postemergence, read-out: Plant response rating, Foxtail, Giant
Summary of the method: as §1

[14] = test system: wheat (Triticum aestivum); test: Test A postemergence; conditions: Triticum aestivum, post-emergence, 240 h, Postemergence, read-out: Plant response rating, Wheat
Summary of the method: as §1

[15] = test system: pigweed (Amaranthus retroflexus); test: Test A postemergence; conditions: Amaranthus retroflexus, post-emergence, 240 h, Postemergence, read-out: Plant response rating, Pigweed
Summary of the method: as §1

[16] = test system: corn (Zea mays); test: Test A postemergence; conditions: Zea mays, post-emergence, 240 h, Postemergence
Summary of the method: as §1

[17] = 125 g ai/ha, visual injury after approx. 10 d, 0 to 100 scale, 0 no effect, 100 complete control
[18] = 500 g ai/ha, visual injury, 0 to 100 scale (0 no effect, 100 complete control), approx. 10 d

SMILES: CN1CC[C@H](c2cccc(C(F)(F)F)c2)[C@@H](C(=O)Nc2ccc(F)c(F)c2F)C1=O [Compound 1395]
- pest or weed control at 500 g/ha ([1]; 500 g ai/ha, preemergence): 0%
- pest or weed control at 125 g/ha ([1]; Preemergence, 125 g ai/ha): 0%
- pest or weed control at 500 g/ha ([2]; 500 g ai/ha, preemergence): 90%
- pest or weed control at 125 g/ha ([2]; Preemergence, 125 g ai/ha): 90%
- pest or weed control at 500 g/ha ([3]; 500 g ai/ha, preemergence): 0%
- pest or weed control at 125 g/ha ([3]; Preemergence, 125 g ai/ha): 0%
- pest or weed control at 500 g/ha ([4]; 500 g ai/ha, preemergence): 40%
- pest or weed control at 125 g/ha ([4]; Preemergence, 125 g ai/ha): 50%
- pest or weed control at 500 g/ha ([5]; 500 g ai/ha, preemergence): 90%
- pest or weed control at 125 g/ha ([5]; Preemergence, 125 g ai/ha): 90%
- pest or weed control at 500 g/ha ([6]; 500 g ai/ha, preemergence): 0%
- pest or weed control at 125 g/ha ([6]; Preemergence, 125 g ai/ha): 0%
- pest or weed control at 125 g/ha [7, 17]: 0%
- pest or weed control at 500 g/ha [7, 18]: 0%
- pest or weed control at 125 g/ha [8, 17]: 0%
- pest or weed control at 500 g/ha [8, 18]: 0%
- pest or weed control at 125 g/ha [9, 17]: 90%
- pest or weed control at 500 g/ha [9, 18]: 90%
- pest or weed control at 125 g/ha [10, 17]: 0%
- pest or weed control at 500 g/ha [10, 18]: 0%
- pest or weed control at 125 g/ha [11, 17]: 20%
- pest or weed control at 500 g/ha [11, 18]: 20%
- pest or weed control at 125 g/ha [12, 17]: 70%
- pest or weed control at 500 g/ha [12, 18]: 0%
- pest or weed control at 125 g/ha [13, 17]: 90%
- pest or weed control at 500 g/ha [13, 18]: 90%
- plant injury at 125 g/ha [14, 17]: 20%
- plant injury at 500 g/ha [14, 18]: 40%
- pest or weed control at 125 g/ha [15, 17]: 0%
- pest or weed control at 500 g/ha [15, 18]: 0%
- Corn plant response rating (crop injury, 0 = no effect, 100 = complete kill) at 125 g/ha [16, 17]: 50%
- Corn plant response rating (crop injury, 0 = no effect, 100 = complete kill) at 500 g/ha [16, 18]: 70%
